Values quoted from earlier work in patent US20160081962A1, “N[…] DIETARY S[…] ACIDS AND NITRITE” (NITROMEGA CORP., priority 2013, published 2016).

Conditions: exogenous NO3^− intake 10 mg/kg in humans; in 30 min

## O=[N+]([O-])O [NO3^−, nitrate]
  increase of plasma NO2^− concentration: up to four- to five-fold
